Measured values published in patent US8106055B2, “Substituted amide compounds” (Gruenenthal GmbH, priority 2007, dated 2012).

molecular target: T1, human μ opiate receptor (Homo sapiens, UniProt P35372); test: Affinity for the human μ opiate receptor ([3H]-naloxone displacement, CHO-K1 receptor membrane preparation, SPA); type: binding; conditions: test concentration of 1 μM
T1 construct: purchased PerkinElmer Life Sciences, Zaventem, Belgium RB-HOM; host or cells: CHO-K1 cells (membrane preparation)
T1 sequence (P35372 whole entry): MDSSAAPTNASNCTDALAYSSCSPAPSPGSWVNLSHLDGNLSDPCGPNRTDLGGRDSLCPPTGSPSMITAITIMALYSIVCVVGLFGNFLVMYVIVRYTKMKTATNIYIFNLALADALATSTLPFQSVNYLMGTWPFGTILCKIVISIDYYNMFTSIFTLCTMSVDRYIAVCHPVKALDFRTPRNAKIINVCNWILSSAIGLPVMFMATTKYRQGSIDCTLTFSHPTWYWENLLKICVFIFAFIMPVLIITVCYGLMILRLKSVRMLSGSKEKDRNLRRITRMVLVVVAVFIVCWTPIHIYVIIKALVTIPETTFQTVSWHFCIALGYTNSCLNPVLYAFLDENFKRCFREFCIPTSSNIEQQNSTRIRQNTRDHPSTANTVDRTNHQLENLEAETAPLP
Method in brief: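 Readout is percent displacement of [3H]-naloxone (1 nmol/l) from human μ receptor in CHO-K1 membranes, measured at 1 μmol/l compound. Incubation runs 90 minutes at room temperature with WGA-SPA beads in Tris-HCl/BSA buffer; non-specific binding is defined with 100 μmol/l naloxone.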

Q: How did the “μ (binding on the μ opioid receptor, % inhibition)” value turn out when CN(C)C(c1ccc(F)cc1)C1CCC(CCNC(=O)COC2CCN(S(=O)(=O)c3ccccc3)CC2)CC1 (centres unmarked) [Example 553] was run?
A: Its value is 26%.

Q: How did the “μ (binding on the μ opioid receptor, % inhibition)” value turn out when COc1cc(C)c(S(=O)(=O)N(CCOCC(=O)NCCC2CCC(C(c3ccc(Cl)cc3)N(C)C)CC2)Cc2ccccc2)c(C)c1 (centres unmarked) [Example 569] was run?
A: The value was 10%.

Q: For CN(C)C(c1cccc(F)c1)C1CCC(CCNC(=O)COCCC2CCN(S(=O)(=O)c3ccccc3)CC2)CC1 (centres unmarked) [Example 543], which “μ (binding on the μ opioid receptor, % inhibition)” value is on record?
A: Its value is 29%.

Q: Which “μ (binding on the μ opioid receptor, % inhibition)” value does the source give for COc1ccc(S(=O)(=O)N2CCCCC2COCC(=O)NC2CCC(C(c3ccc(F)cc3)N(C)C)CC2)cc1OC (centres unmarked) [Example 555] here?
A: The value was 23%.

Q: Which “μ (binding on the μ opioid receptor, % inhibition)” value does the source give for CN(C)C(CCc1ccccc1)C1CCC(CNC(=O)COCCN(C)S(=O)(=O)c2cccc(C(F)(F)F)c2)CC1 (centres unmarked) [Example 556] here?
A: Its value is 27%.

Q: For CN(C)C(CCc1ccccc1)C1CCC(CNC(=O)COC2CCCN(S(=O)(=O)c3ccccc3)C2)CC1 (centres unmarked) [Example 558], which “μ (binding on the μ opioid receptor, % inhibition)” value is on record?
A: Its value is 29%.

Q: How did the “μ (binding on the μ opioid receptor, % inhibition)” value turn out when COc1ccc(S(=O)(=O)N(C)CCOCC(=O)NC2CCC(C(c3ccc(F)cc3)N(C)C)CC2)cc1OC (centres unmarked) [Example 548] was run?
A: Its value is 26%.

Q: With COc1cc(C)c(S(=O)(=O)N(CCOCC(=O)NCC2CCC(C(c3ccc(F)cc3)N(C)C)CC2)Cc2ccccc2)c(C)c1C (centres unmarked) [Example 563] as the molecule, how does the “μ (binding on the μ opioid receptor, % inhibition)” value read?
A: The value was 25%.

Q: With CN(C)C(c1ccc(Cl)cc1)C1CCC(CNC(=O)COCCC2CCN(S(=O)(=O)c3ccccc3)CC2)CC1 (centres unmarked) [Example 584] as the molecule, how does the “μ (binding on the μ opioid receptor, % inhibition)” value read?
A: Its value is 7%.

Q: COc1ccc(S(=O)(=O)N2CCCC2COCC(=O)NCC2CCC(C(CCc3ccccc3)N(C)C)CC2)cc1 (centres unmarked) [Example 572] was tested. Which “μ (binding on the μ opioid receptor, % inhibition)” value did it give?
A: Its value is 29%.

same assay, conditions: test concentration of 1 μM; 1 µM

Q: COc1ccc(S(=O)(=O)N2CCCCC2COCC(=O)NCC2CCC(C(c3ccc(F)cc3)N(C)C)CC2)cc1OC (single isomer, unassigned) [Example 537] was tested. Which “μ (binding on the μ opioid receptor, % inhibition)” value did it give?
A: The value was 35%.

same assay, conditions: test concentration of 1 μM; read-out: μ (binding on the μ opioid receptor, % inhibition)

Q: For CN(C)C(c1cccs1)C1CCC(CCNC(=O)COCCN2CCN(S(=O)(=O)c3ccccc3)CC2)CC1 (centres unmarked) [Example 99, N-(2-(4-((dimethylamino)(thiophen-2-yl)methyl)cyclohexyl)ethyl)-2-(2-(4-(phenylsulfonyl)piperazin-1-yl)ethoxy)acetamide], which inhibition at 1 µM is on record?
A: The inhibition at 1 µM was 92%.

Q: With CN(C)C(c1cccs1)C1CCC(CCNC(=O)COC2CCCN(S(=O)(=O)c3ccccc3)C2)CC1 (centres unmarked) [Example 100, N-(2-(4-((dimethylamino)(thiophen-2-yl)methyl)cyclohexyl)ethyl)-2-(1-(phenylsulfonyl)piperidin-3-yloxy)acetamide] as the molecule, how does the inhibition at 1 µM read?
A: Its inhibition at 1 µM is 94%.

Q: For COc1cc(C)c(S(=O)(=O)N2CCC(OCC(=O)NC3CCC(C(c4cccs4)N(C)C)CC3)C2)c(C)c1 (centres unmarked) [Example 98, N-(4-((dimethylamino)(thiophen-2-yl)methyl)cyclohexyl)-2-(1-(4-methoxy-2,6-dimethylphenylsulfonyl)pyrrolidin-3-yloxy)acetamide], which inhibition at 1 µM is on record?
A: The inhibition at 1 µM was 91%.

Q: CN(C)C(c1cccc(F)c1)C1CCC(CNC(=O)COCC2CCCN2S(=O)(=O)c2ccc(Cl)c(Cl)c2)CC1 (centres unmarked) [Example 119, 2-((1-(3,4-dichlorophenylsulfonyl)pyrrolidin-2-yl)methoxy)-N-((4-((dimethylamino)(3-fluorophenyl)methyl)cyclohexyl)methyl)acetamide] was tested. Which inhibition at 1 µM did it give?
A: The inhibition at 1 µM was 90%.

Q: CN(C)C(c1ccccc1)C1CCC(CNC(=O)COC2CCCN(S(=O)(=O)c3ccccc3)C2)CC1 (centres unmarked) [Example 114, N-((4-((dimethylamino)(phenyl)methyl)cyclohexyl)methyl)-2-(1-(phenylsulfonyl)piperidin-3-yloxy)acetamide] was tested. Which inhibition at 1 µM did it give?
A: Its inhibition at 1 µM is 85%.

Q: Which inhibition at 1 µM does the source give for CN(C)C(c1cccc(F)c1)C1CCC(CCNC(=O)COCCN(C)S(=O)(=O)c2ccc(Cl)cc2Cl)CC1 (centres unmarked) [Example 126, 2-(2-(2,4-dichloro-N-methylphenylsulfonamido)ethoxy)-N-(2-(4-((dimethylamino)(3-fluorophenyl)methyl)cyclohexyl)ethyl)acetamide] here?
A: The inhibition at 1 µM was 92%.
